Results from patent US10538498B2, “1,3,4-oxadiazole sulfonamide derivative compounds as histone deacetylase 6 inhibitor, and the pharmaceutical composition comprising the same” (Chong Kun Dang Pharmaceutical Corp., priority 2015, dated 2020).

Molecular target: T1, human recombinant HDAC6 (Homo sapiens, UniProt Q9UBN7)
T1 construct: purchased Calbiochem 382180
T1 sequence (Q9UBN7 1-1215): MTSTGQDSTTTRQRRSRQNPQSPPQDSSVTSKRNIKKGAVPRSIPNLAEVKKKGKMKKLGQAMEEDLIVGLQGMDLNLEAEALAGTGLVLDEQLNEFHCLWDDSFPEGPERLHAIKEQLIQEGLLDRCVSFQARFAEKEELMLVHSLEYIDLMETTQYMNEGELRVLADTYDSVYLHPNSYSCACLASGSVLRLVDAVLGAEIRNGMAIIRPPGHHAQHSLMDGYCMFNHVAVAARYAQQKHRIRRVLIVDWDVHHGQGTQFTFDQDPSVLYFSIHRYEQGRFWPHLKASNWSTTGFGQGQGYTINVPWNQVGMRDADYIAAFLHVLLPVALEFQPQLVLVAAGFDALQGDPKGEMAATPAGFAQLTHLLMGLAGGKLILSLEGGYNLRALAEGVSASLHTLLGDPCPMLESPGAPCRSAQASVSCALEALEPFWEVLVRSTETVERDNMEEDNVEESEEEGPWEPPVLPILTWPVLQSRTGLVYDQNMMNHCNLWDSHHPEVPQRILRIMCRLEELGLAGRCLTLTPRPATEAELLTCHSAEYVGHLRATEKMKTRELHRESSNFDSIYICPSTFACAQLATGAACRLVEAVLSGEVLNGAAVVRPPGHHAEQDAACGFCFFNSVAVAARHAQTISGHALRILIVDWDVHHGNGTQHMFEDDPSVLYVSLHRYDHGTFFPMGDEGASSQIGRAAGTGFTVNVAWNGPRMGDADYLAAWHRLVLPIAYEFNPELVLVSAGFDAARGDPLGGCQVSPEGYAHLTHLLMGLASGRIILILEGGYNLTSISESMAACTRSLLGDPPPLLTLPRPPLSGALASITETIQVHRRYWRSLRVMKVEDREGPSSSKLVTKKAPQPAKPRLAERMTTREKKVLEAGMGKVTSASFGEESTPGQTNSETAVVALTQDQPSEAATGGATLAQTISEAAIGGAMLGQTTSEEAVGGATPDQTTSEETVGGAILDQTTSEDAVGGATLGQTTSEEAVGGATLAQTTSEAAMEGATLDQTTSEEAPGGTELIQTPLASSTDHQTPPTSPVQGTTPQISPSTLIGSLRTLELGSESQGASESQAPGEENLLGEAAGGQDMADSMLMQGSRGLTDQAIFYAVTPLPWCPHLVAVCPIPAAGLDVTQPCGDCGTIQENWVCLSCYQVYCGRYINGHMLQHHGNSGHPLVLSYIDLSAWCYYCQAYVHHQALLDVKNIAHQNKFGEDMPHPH
Experiment: HDAC6 enzyme activity inhibition assay (HDAC Fluorimetric Drug Discovery Kit)
Type: biochemical
Details: for HDAC6 selectivity (fold): HDAC1 vs HDAC6; for IC50: same protocol as the HDAC1 enzyme activity test
Outline: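 Fluorescence (Ex 360, Em 460) after 30 min developer step; IC50 from dose-response. Reaction: 0.3 μg recombinant enzyme, 10 μM Fluor de Lys-SIRT1 substrate, 5-fold compound dilutions, 60 min at 30° C. Same protocol for both isoforms.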

Row | Compound | HDAC6 selectivity (fold) | IC50
1 | Cc1cccc(N(Cc2ccc(-c3nnc(C(F)F)o3)cc2)S(=O)(=O)C2CCN([C@H]3CC[C@@H](C(F)(F)F)CC3)CC2)c1 [Compound 11698, N-(4-(5-(difluoromethyl)-1,3,4-oxadiazol-2-yl)benzyl)-N-(m-tolyl)-1-((1s,4s)-4-(trifluoromethyl)cyclohexyl)piperidine-4-sulfonamide] | 151 fold | 661 nM
2 | Cc1cccc(N(Cc2ccc(-c3nnc(C(F)F)o3)cc2)S(=O)(=O)C2CCN(C3CCOCC3)CC2)c1 [Compound 11699, N-(4-(5-(difluoromethyl)-1,3,4-oxadiazol-2-yl)benzyl)-1-(tetrahydro-2H-pyran-4-yl)-N-(m-tolyl)piperidine-4-sulfonamide] | 776 fold | 129 nM
3 | O=S(=O)(CCN1CCCC(O)C1)N(Cc1ccc(-c2nnc(C(F)F)o2)cc1)c1ccccc1 (stereo not shown) [Compound 11700, N-(4-(5-(difluoromethyl)-1,3,4-oxadiazol-2-yl)benzyl)-2-(3-hydroxypiperidin-1-yl)-N-phenylethanesulfonamide] | 782 fold | 128 nM
4 | O=S(=O)(CCCN1CC[C@H](F)C1)N(Cc1ccc(-c2nnc(C(F)F)o2)cc1)c1ccccc1 [Compound 11705, (S)—N-(4-(5-(difluoromethyl)-1,3,4-oxadiazol-2-yl)benzyl)-3-(3-fluoropyrrolidin-1-yl)-N-phenylpropane-1-sulfonamide] | 637 fold | 157 nM
5 | CCS(=O)(=O)N(Cc1ccc(-c2nnc(C(F)F)o2)cn1)c1cccc2c1CN(C)C2 [Compound 11712, N-((5-(5-(difluoromethyl)-1,3,4-oxadiazol-2-yl)pyridin-2-yl)methyl)-N-(2-methylisoindolin-4-yl)ethanesulfonamide] | 264 fold | 378 nM

Now from value to compound:

Row | HDAC6 selectivity (fold) | IC50 | Compound
6 | 198 fold | 504 nM | Cc1cccc(N(Cc2ccc(-c3nnc(C(F)F)o3)cc2)S(=O)(=O)C2CCN(C3CC4CCC3C4)CC2)c1 (stereo not shown) [Compound 11693, 1-(bicyclo[2.2.1]heptan-2-yl)-N-(4-(5-(difluoromethyl)-1,3,4-oxadiazol-2-yl)benzyl)-N-(m-tolyl)piperidine-4-sulfonamide]
7 | 215 fold | 464 nM | Cc1cccc(N(Cc2ccc(-c3nnc(C(F)F)o3)cc2)S(=O)(=O)C2CCN(C3CCC(F)(F)CC3)CC2)c1 [Compound 11694, 1-(4,4-difluorocyclohexyl)-N-(4-(5-(difluoromethyl)-1,3,4-oxadiazol-2-yl)benzyl)-N-(m-tolyl)piperidine-4-sulfonamide]
8 | 101 fold | 988 nM | Cc1cccc(N(Cc2ccc(-c3nnc(C(F)F)o3)cc2)S(=O)(=O)C2CCN([C@H]3CC[C@H](C(F)(F)F)CC3)CC2)c1 [Compound 11697, N-(4-(5-(difluoromethyl)-1,3,4-oxadiazol-2-yl)benzyl)-N-(m-tolyl)-1-((1r,4r)-4-(trifluoromethyl)cyclohexyl)piperidine-4-sulfonamide]
9 | 150 fold | 662 nM | O=S(=O)(CCCN1CCC(F)(F)C1)N(Cc1ccc(-c2nnc(C(F)F)o2)cc1)c1ccccc1 [Compound 11706, N-(4-(5-(difluoromethyl)-1,3,4-oxadiazol-2-yl)benzyl)-3-(3,3-difluoropyrrolidin-1-yl)-N-phenylpropane-1-sulfonamide]
10 | 879 fold | 114 nM | O=S(=O)(CCN1CCN(CCO)CC1)N(Cc1ccc(-c2nnc(C(F)F)o2)cc1)c1ccccc1 [Compound 11717, N-(4-(5-(difluoromethyl)-1,3,4-oxadiazol-2-yl)benzyl)-2-(4-(2-hydroxyethyl)piperazin-1-yl)-N-phenylethanesulfonamide]
11 | 1353 fold | 73.9 nM | O=S(=O)(CCCN1CCOCC1)N(Cc1ccc(-c2nnc(C(F)F)o2)cn1)c1ccccc1 [Compound 11718, N-((5-(5-(difluoromethyl)-1,3,4-oxadiazol-2-yl)pyridin-2-yl)methyl)-3-morpholino-N-phenylpropane-1-sulfonamide]
